Measured values reported in US10757937B2, “Sulfonamides that activate ABA receptors” (The Regents of the University of California, priority 2014, dated 2020).

Tests used:
Experiment in all cases: receptor-mediated PP2C (HAB1) inhibition in vitro assay
Format in all cases: biochemical
PYL2 = molecular target: T1, PYL2 (Arabidopsis thaliana, UniProt O80992); details: for remaining activity at 50 µM: 50 uM of the test compound; for IC50: Table XII-B, calculated from dose curves, read-out: PP2C Activity (IC50 in uM) PYL2
T1 construct: 6X-His; made in house; host or cells: E. coli BL21[DE3]pLysS
T1 sequence (O80992 1-190): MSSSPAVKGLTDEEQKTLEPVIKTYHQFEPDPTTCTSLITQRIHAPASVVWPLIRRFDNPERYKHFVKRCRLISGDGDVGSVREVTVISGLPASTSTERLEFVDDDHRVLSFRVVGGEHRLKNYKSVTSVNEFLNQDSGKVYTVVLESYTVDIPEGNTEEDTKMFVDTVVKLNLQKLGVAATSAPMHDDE
T1 sequence (Q9CAJ0 23-511 partner): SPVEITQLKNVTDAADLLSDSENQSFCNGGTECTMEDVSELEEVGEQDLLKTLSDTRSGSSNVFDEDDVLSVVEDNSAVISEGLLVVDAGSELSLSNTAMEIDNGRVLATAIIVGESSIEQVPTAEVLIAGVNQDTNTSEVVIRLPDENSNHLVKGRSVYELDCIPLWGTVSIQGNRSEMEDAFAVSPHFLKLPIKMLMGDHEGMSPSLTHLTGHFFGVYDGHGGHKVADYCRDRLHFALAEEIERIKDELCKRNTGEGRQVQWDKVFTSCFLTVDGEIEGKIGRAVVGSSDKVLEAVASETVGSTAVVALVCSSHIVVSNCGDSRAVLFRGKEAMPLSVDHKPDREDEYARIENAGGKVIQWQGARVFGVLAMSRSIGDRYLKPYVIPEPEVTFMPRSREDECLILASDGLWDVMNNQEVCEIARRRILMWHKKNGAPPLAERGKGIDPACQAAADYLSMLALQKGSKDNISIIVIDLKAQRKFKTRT
How it was run: (§1)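 Compounds, tested at 25 μM or 50 uM with ABA at 10 uM, were incubated with recombinant receptor and 50 nM GST-HAB1 (2:1 ratio) in MnCl2-containing Tris-OAc buffer, pH 7.9. Phosphatase activity was followed by 4-methylumbelliferyl-phosphate fluorescence.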

PYL8 = molecular target: T2, PYL8 (Arabidopsis thaliana, UniProt Q9FGM1); details: for remaining activity at 50 µM: 50 uM of the test compound; for IC50: Table XII-B, calculated from dose curves, read-out: PP2C Activity (IC50 in uM) PYL8
T2 construct: 6X-His; made in house; host or cells: E. coli BL21[DE3]pLysS
T2 sequence (Q9FGM1 1-188): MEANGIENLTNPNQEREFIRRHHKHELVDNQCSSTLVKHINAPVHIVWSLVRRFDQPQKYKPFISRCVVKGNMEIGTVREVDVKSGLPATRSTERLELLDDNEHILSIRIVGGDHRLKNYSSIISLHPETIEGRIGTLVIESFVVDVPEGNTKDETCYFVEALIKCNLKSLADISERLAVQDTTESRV
T2 sequence (Q9CAJ0 23-511 partner): T1 sequence (Q9CAJ0 23-511 partner)
How it was run: (§2)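 Fluorogenic readout: 4-methylumbelliferyl-phosphate hydrolysis by 50 nM GST-HAB1 plus 2:1 His-receptor; Tris-OAc pH 7.9, NaCl, 1 mM MnCl2, β-ME. Compounds at 25 μM or 50 uM single dose; IC50 from dose curves for selected compounds.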

PYL5 = molecular target: T3, PYL5 (Arabidopsis thaliana, UniProt Q9FLB1); details: for remaining activity at 50 µM: 50 uM of the test compound; for IC50: Table XII-B, calculated from dose curves, read-out: PP2C Activity (IC50 in uM) PYL5
T3 construct: 6X-His; made in house; host or cells: E. coli BL21[DE3]pLysS
T3 sequence (Q9FLB1 1-203): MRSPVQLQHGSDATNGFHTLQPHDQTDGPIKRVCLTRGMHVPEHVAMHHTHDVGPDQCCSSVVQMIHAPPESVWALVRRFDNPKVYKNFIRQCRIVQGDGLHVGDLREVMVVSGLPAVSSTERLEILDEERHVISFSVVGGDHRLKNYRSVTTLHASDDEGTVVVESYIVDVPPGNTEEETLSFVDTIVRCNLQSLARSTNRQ
T3 sequence (Q9CAJ0 23-511 partner): T1 sequence (Q9CAJ0 23-511 partner)
How it was run: as §2

PYL3 = molecular target: T4, PYL3 (Arabidopsis thaliana, UniProt Q9SSM7); details: for remaining activity at 50 µM: 50 uM of the test compound; for IC50: Table XII-B, calculated from dose curves, read-out: PP2C Activity (IC50 in uM) PYL3
T4 construct: 6X-His; made in house; host or cells: E. coli BL21[DE3]pLysS
T4 sequence (Q9SSM7 1-209): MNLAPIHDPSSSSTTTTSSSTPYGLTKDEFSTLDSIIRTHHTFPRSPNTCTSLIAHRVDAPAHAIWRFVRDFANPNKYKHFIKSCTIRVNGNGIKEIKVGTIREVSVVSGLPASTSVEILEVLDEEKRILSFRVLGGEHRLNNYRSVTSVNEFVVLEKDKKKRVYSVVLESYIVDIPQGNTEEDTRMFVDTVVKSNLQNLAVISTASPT
T4 sequence (Q9CAJ0 23-511 partner): T1 sequence (Q9CAJ0 23-511 partner)
How it was run: as §1

PYL4 = molecular target: T5, PYL4 (Arabidopsis thaliana, UniProt O80920); details: for remaining activity at 50 µM: 50 uM of the test compound; for IC50: Table XII-B, calculated from dose curves, read-out: PP2C Activity (IC50 in uM) PYL4
T5 construct: 6X-His; made in house; host or cells: E. coli BL21[DE3]pLysS
T5 sequence (O80920 1-207): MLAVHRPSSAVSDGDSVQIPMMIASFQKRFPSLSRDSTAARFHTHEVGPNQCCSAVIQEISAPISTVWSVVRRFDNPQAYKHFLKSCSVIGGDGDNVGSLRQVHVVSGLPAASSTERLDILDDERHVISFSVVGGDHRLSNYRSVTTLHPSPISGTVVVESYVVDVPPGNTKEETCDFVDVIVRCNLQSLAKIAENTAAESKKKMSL
T5 sequence (Q9CAJ0 23-511 partner): T1 sequence (Q9CAJ0 23-511 partner)
How it was run: as §2

PYL9 = molecular target: T6, PYL9 (Arabidopsis thaliana, UniProt Q84MC7); details: for remaining activity at 50 µM: 50 uM of the test compound; for IC50: Table XII-B, calculated from dose curves, read-out: PP2C Activity (IC50 in uM) PYL9
T6 construct: 6X-His; made in house; host or cells: E. coli BL21[DE3]pLysS
T6 sequence (Q84MC7 1-187): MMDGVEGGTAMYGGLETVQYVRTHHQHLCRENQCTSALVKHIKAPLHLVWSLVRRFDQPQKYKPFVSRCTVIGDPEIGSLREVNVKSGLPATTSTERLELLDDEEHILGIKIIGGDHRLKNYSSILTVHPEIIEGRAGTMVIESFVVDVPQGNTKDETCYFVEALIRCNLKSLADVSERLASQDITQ
T6 sequence (Q9CAJ0 23-511 partner): T1 sequence (Q9CAJ0 23-511 partner)
How it was run: as §2

## N#Cc1ccc(CS(=O)(=O)NC(=O)C(c2ccccc2)c2ccccc2)cc1 [Compound 71, N-[(4-Cyanophenyl)methanesulfonyl]-2,2-diphenylacetamide]
PYL2
  remaining activity at 50 µM: 102%
  IC50: > 50 µM
PYL8
  remaining activity at 50 µM: 96.8%
  IC50: > 50 µM
PYL5
  remaining activity at 50 µM: 102%
  IC50: > 50 µM
PYL3
  remaining activity at 50 µM: 102%
  IC50: > 50 µM
PYL4
  remaining activity at 50 µM: 93.2%
  IC50: > 50 µM
PYL9
  remaining activity at 50 µM: 81.8%
  IC50: > 50 µM

## N#Cc1ccc(CS(=O)(=O)NC(=O)C(c2ccc(F)cc2)c2ccc(F)cc2)cc1 [Compound 72, N-[(4-Cyanophenyl)methanesulfonyl]-2,2-bis(4-fluorophenyl)acetamide]
PYL2
  remaining activity at 50 µM: 100%
  IC50: > 50 µM
PYL8
  remaining activity at 50 µM: 98.5%
  IC50: > 50 µM
PYL5
  remaining activity at 50 µM: 102%
  IC50: > 50 µM
PYL3
  remaining activity at 50 µM: 100%
  IC50: > 50 µM
PYL4
  remaining activity at 50 µM: 90.1%
  IC50: > 50 µM
PYL9
  remaining activity at 50 µM: 85.8%
  IC50: > 50 µM

## N#Cc1ccc(CS(=O)(=O)NC(=O)C(C2CCCCC2)C2CCCCC2)cc1 [Compound 73, N-[(4-Cyanophenyl)methanesulfonyl]-2,2-cyclohexylacetamide]
PYL2
  remaining activity at 50 µM: 93.8%
  IC50: > 50 µM
PYL8
  remaining activity at 50 µM: 66.1%
  IC50: > 50 µM
PYL5
  remaining activity at 50 µM: 110%
  IC50: > 50 µM
PYL3
  remaining activity at 50 µM: 92.7%
  IC50: > 50 µM
PYL4
  remaining activity at 50 µM: 98.2%
  IC50: > 50 µM
PYL9
  remaining activity at 50 µM: 56.3%
  IC50: > 50 µM

## N#Cc1ccc(CS(=O)(=O)NC(=O)C2(c3cccs3)CCCCC2)cc1 [Compound 75, N-[(4-Cyanophenyl)methanesulfonyl]-1-(thiophen-2-yl)cyclohexane-1-carboxamide]
PYL2
  remaining activity at 50 µM: 89.5%
  IC50: > 50 µM
PYL8
  remaining activity at 50 µM: 14.9%
  IC50: 0.134 µM
PYL5
  remaining activity at 50 µM: 81.8%
  IC50: > 50 µM
PYL3
  remaining activity at 50 µM: 95.4%
  IC50: > 50 µM
PYL4
  remaining activity at 50 µM: 98%
  IC50: > 50 µM
PYL9
  remaining activity at 50 µM: 6.9%
  IC50: 0.083 µM

## N#Cc1ccc(CS(=O)(=O)NC(=O)C2(c3ccsc3)CCCCC2)cc1 [Compound 78, N-[(4-Cyanophenyl)methanesulfonyl]-1-(thiophen-3-yl)cyclohexane-1-carboxamide]
PYL2
  remaining activity at 50 µM: 81.2%
  IC50: > 50 µM
PYL8
  remaining activity at 50 µM: 14.3%
  IC50: 0.073 µM
PYL5
  remaining activity at 50 µM: 68.5%
  IC50: > 50 µM
PYL3
  remaining activity at 50 µM: 103%
  IC50: > 50 µM
PYL4
  remaining activity at 50 µM: 102%
  IC50: > 50 µM
PYL9
  remaining activity at 50 µM: 6.1%
  IC50: 0.038 µM

## N#Cc1ccc(CS(=O)(=O)NC(=O)C2(c3ccsc3)CCCCC2)cc1Br [Compound 106, N-[(4-Cyano-3-bromophenyl)methanesulfonyl]-1-(thiophen-3-yl)cyclohexane-1-carboxamide]
PYL2
  remaining activity at 50 µM: 29.6%
  IC50: 33 µM
PYL8
  remaining activity at 50 µM: 13.6%
  IC50: 0.037 µM
PYL5
  remaining activity at 50 µM: 11.9%
  IC50: 7.26 µM
PYL3
  remaining activity at 50 µM: 96.9%
  IC50: > 50 µM
PYL4
  remaining activity at 50 µM: 89.2%
  IC50: > 50 µM
PYL9
  remaining activity at 50 µM: 5.4%
  IC50: 0.014 µM
